From PubChem BioAssay (NCI)
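Compound exposure: 48 hours, 5 concentrations, 96-well plates. TGI is the concentration that stops growth completely.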

Experiments:
Assay in all cases: DTP human tumour cell line panel, 48 h
UACC-62 melanoma = tested on: UACC-62 melanoma
CCRF-CEM leukemia = tested on: CCRF-CEM leukemia
HCT-15 colon = tested on: HCT-15 colon
HOP-92 NSCLC = tested on: HOP-92 NSCLC
HL-60(TB) leukemia = tested on: HL-60(TB) leukemia
SR leukemia = tested on: SR leukemia
SF-539 CNS = tested on: SF-539 CNS
OVCAR-3 ovarian = tested on: OVCAR-3 ovarian
SN12C renal = tested on: SN12C renal
786-0 renal = tested on: 786-0 renal
MOLT-4 leukemia = tested on: MOLT-4 leukemia
DMS 114 small cell lung = tested on: DMS 114 small cell lung
SF-295 CNS = tested on: SF-295 CNS
MALME-3M melanoma = tested on: MALME-3M melanoma
HOP-18 NSCLC = tested on: HOP-18 NSCLC
M19-MEL melanoma = tested on: M19-MEL melanoma
LXFL 529 NSCLC = tested on: LXFL 529 NSCLC
OVCAR-5 ovarian = tested on: OVCAR-5 ovarian
SK-MEL-5 melanoma = tested on: SK-MEL-5 melanoma
RXF-631 renal = tested on: RXF-631 renal
HT29 colon = tested on: HT29 colon
RXF 393 renal = tested on: RXF 393 renal
SNB-78 CNS = tested on: SNB-78 CNS
SK-MEL-28 melanoma = tested on: SK-MEL-28 melanoma
K-562 leukemia = tested on: K-562 leukemia
SK-MEL-2 melanoma = tested on: SK-MEL-2 melanoma
HCC-2998 colon = tested on: HCC-2998 colon
NCI-H226 lung = tested on: NCI-H226 lung
A549 NSCLC = tested on: A549 NSCLC
ACHN renal = tested on: ACHN renal
U251 CNS = tested on: U251 CNS
RPMI-8226 leukemia = tested on: RPMI-8226 leukemia
COLO 205 colon = tested on: COLO 205 colon
KM20L2 colon = tested on: KM20L2 colon
NCI-H460 lung = tested on: NCI-H460 lung
SF-268 CNS = tested on: SF-268 CNS
HOP-62 NSCLC = tested on: HOP-62 NSCLC
IGROV1 ovarian = tested on: IGROV1 ovarian
DMS 273 small cell lung = tested on: DMS 273 small cell lung
SK-OV-3 ovarian = tested on: SK-OV-3 ovarian
UO-31 renal = tested on: UO-31 renal
CAKI-1 renal = tested on: CAKI-1 renal
OVCAR-4 ovarian = tested on: OVCAR-4 ovarian
HCT-116 colon = tested on: HCT-116 colon
NCI-H23 lung = tested on: NCI-H23 lung
SNB-75 CNS = tested on: SNB-75 CNS
DLD-1 colon = tested on: DLD-1 colon
KM12 colon = tested on: KM12 colon
UACC-257 melanoma = tested on: UACC-257 melanoma
M14 melanoma = tested on: M14 melanoma
SW-620 colon = tested on: SW-620 colon
TK-10 renal = tested on: TK-10 renal
A498 renal = tested on: A498 renal
LOX IMVI melanoma = tested on: LOX IMVI melanoma
MCF7 breast = tested on: MCF7 breast
NCI-H522 lung = tested on: NCI-H522 lung
BT-549 breast = tested on: BT-549 breast
DU-145 prostate = tested on: DU-145 prostate
EKVX NSCLC = tested on: EKVX NSCLC
PC-3 prostate = tested on: PC-3 prostate
OVCAR-8 ovarian = tested on: OVCAR-8 ovarian
T-47D breast = tested on: T-47D breast
XF 498 CNS = tested on: XF 498 CNS
NCI/ADR-RES ovarian = tested on: NCI/ADR-RES ovarian
MDA-MB-435 = tested on: MDA-MB-435
HS 578T breast = tested on: HS 578T breast
SNB-19 CNS = tested on: SNB-19 CNS
MDA-MB-231 breast = tested on: MDA-MB-231 breast

Molecule `O=C(/C=C/c1ccccc1)/C=C/c1ccccc1` has a TGI (UACC-62 melanoma) of 87.1 µM, a TGI (CCRF-CEM leukemia) greater than 100 µM and a TGI (HCT-15 colon) of 70.5 µM. It also gave a TGI (HOP-92 NSCLC) of 88.6 µM, a TGI (HL-60(TB) leukemia) of 78.8 µM and a TGI (SR leukemia) of 67.1 µM. The TGI (SF-539 CNS) was 45 µM, the TGI (OVCAR-3 ovarian) was 51.3 µM and the TGI (SN12C renal) was 42.1 µM. It also gave a TGI (786-0 renal) of 85.5 µM, a TGI (MOLT-4 leukemia) of 86.5 µM and a TGI (DMS 114 small cell lung) of 52.9 µM. The TGI (SF-295 CNS) was greater than 100 µM, the TGI (MALME-3M melanoma) was 57.7 µM and the TGI (HOP-18 NSCLC) was 92.8 µM. For the same molecule, the TGI (M19-MEL melanoma) was 50.2 µM, the TGI (LXFL 529 NSCLC) was 50.1 µM and the TGI (OVCAR-5 ovarian) was greater than 100 µM. For the same molecule, the TGI (SK-MEL-5 melanoma) was greater than 100 µM, the TGI (RXF-631 renal) was greater than 100 µM and the TGI (HT29 colon) was 35.1 µM. For the same molecule, the TGI (RXF 393 renal) was greater than 100 µM, the TGI (SNB-78 CNS) was greater than 100 µM and the TGI (SK-MEL-28 melanoma) was 42.9 µM. For the same molecule, the TGI (K-562 leukemia) was greater than 100 µM, the TGI (SK-MEL-2 melanoma) was greater than 100 µM and the TGI (HCC-2998 colon) was greater than 100 µM. The TGI (NCI-H226 lung) was greater than 100 µM, the TGI (A549 NSCLC) was greater than 100 µM and the TGI (ACHN renal) was 38.2 µM. For the same molecule, the TGI (U251 CNS) was 43.5 µM, the TGI (RPMI-8226 leukemia) was greater than 100 µM and the TGI (COLO 205 colon) was greater than 100 µM. The TGI (KM20L2 colon) was 52.5 µM, the TGI (NCI-H460 lung) was 65.5 µM and the TGI (SF-268 CNS) was 66.4 µM. For the same molecule, the TGI (HOP-62 NSCLC) was greater than 100 µM, the TGI (IGROV1 ovarian) was 66.5 µM and the TGI (DMS 273 small cell lung) was greater than 100 µM. It also gave a TGI (SK-OV-3 ovarian) greater than 100 µM, a TGI (UO-31 renal) greater than 100 µM and a TGI (CAKI-1 renal) greater than 100 µM. For the same molecule, the TGI (OVCAR-4 ovarian) was 53.2 µM, the TGI (HCT-116 colon) was 32.1 µM and the TGI (NCI-H23 lung) was 82.4 µM. The TGI (SNB-75 CNS) was greater than 100 µM, the TGI (DLD-1 colon) was 32.5 µM and the TGI (KM12 colon) was 38.2 µM. The TGI (UACC-257 melanoma) was 87 µM, the TGI (M14 melanoma) was 39.8 µM and the TGI (SW-620 colon) was 40.8 µM. The TGI (TK-10 renal) was greater than 100 µM, the TGI (A498 renal) was greater than 100 µM and the TGI (LOX IMVI melanoma) was 31.7 µM.
Work on `N#CC(C(=O)/C(=N/Nc1nc(=S)[nH]n1N)C(C#N)c1ccccc1)c1ccccc1` (stereo unspecified) yielded a TGI (UACC-62 melanoma) greater than 100 µM, a TGI (CCRF-CEM leukemia) greater than 100 µM and a TGI (HCT-15 colon) greater than 100 µM. It also gave a TGI (HOP-92 NSCLC) greater than 100 µM, a TGI (HL-60(TB) leukemia) greater than 100 µM and a TGI (MCF7 breast) greater than 100 µM. For the same molecule, the TGI (SR leukemia) was greater than 100 µM, the TGI (SF-539 CNS) was greater than 100 µM and the TGI (NCI-H522 lung) was greater than 100 µM. It also gave a TGI (BT-549 breast) greater than 100 µM, a TGI (OVCAR-3 ovarian) greater than 100 µM and a TGI (SN12C renal) greater than 100 µM. The TGI (786-0 renal) was greater than 100 µM, the TGI (DMS 114 small cell lung) was greater than 100 µM and the TGI (SF-295 CNS) was greater than 100 µM. The TGI (MALME-3M melanoma) was greater than 100 µM, the TGI (HOP-18 NSCLC) was greater than 100 µM and the TGI (M19-MEL melanoma) was greater than 100 µM. The TGI (LXFL 529 NSCLC) was greater than 100 µM, the TGI (OVCAR-5 ovarian) was greater than 100 µM and the TGI (SK-MEL-5 melanoma) was greater than 100 µM. The TGI (RXF-631 renal) was greater than 100 µM, the TGI (HT29 colon) was greater than 100 µM and the TGI (RXF 393 renal) was greater than 100 µM. It also gave a TGI (DU-145 prostate) greater than 100 µM, a TGI (SNB-78 CNS) greater than 100 µM and a TGI (EKVX NSCLC) greater than 100 µM. It also gave a TGI (SK-MEL-28 melanoma) greater than 100 µM, a TGI (K-562 leukemia) greater than 100 µM and a TGI (PC-3 prostate) greater than 100 µM. It also gave a TGI (SK-MEL-2 melanoma) greater than 100 µM, a TGI (HCC-2998 colon) greater than 100 µM and a TGI (NCI-H226 lung) greater than 100 µM. For the same molecule, the TGI (OVCAR-8 ovarian) was greater than 100 µM, the TGI (A549 NSCLC) was greater than 100 µM and the TGI (ACHN renal) was greater than 100 µM. It also gave a TGI (U251 CNS) greater than 100 µM, a TGI (T-47D breast) greater than 100 µM and a TGI (RPMI-8226 leukemia) greater than 100 µM. It also gave a TGI (COLO 205 colon) greater than 100 µM, a TGI (KM20L2 colon) greater than 100 µM and a TGI (NCI-H460 lung) greater than 100 µM. The TGI (XF 498 CNS) was greater than 100 µM, the TGI (NCI/ADR-RES ovarian) was greater than 100 µM and the TGI (SF-268 CNS) was greater than 100 µM. It also gave a TGI (HOP-62 NSCLC) greater than 100 µM, a TGI (IGROV1 ovarian) greater than 100 µM and a TGI (MDA-MB-435) greater than 100 µM. The TGI (DMS 273 small cell lung) was greater than 100 µM, the TGI (SK-OV-3 ovarian) was greater than 100 µM and the TGI (UO-31 renal) was greater than 100 µM. The TGI (CAKI-1 renal) was greater than 100 µM, the TGI (OVCAR-4 ovarian) was greater than 100 µM and the TGI (HCT-116 colon) was greater than 100 µM. The TGI (HS 578T breast) was greater than 100 µM, the TGI (NCI-H23 lung) was greater than 100 µM and the TGI (SNB-19 CNS) was greater than 100 µM. It also gave a TGI (SNB-75 CNS) greater than 100 µM, a TGI (DLD-1 colon) greater than 100 µM and a TGI (KM12 colon) greater than 100 µM. It also gave a TGI (UACC-257 melanoma) greater than 100 µM, a TGI (M14 melanoma) greater than 100 µM and a TGI (SW-620 colon) greater than 100 µM. For the same molecule, the TGI (TK-10 renal) was greater than 100 µM, the TGI (A498 renal) was greater than 100 µM and the TGI (LOX IMVI melanoma) was greater than 100 µM. For the same molecule, the TGI (MDA-MB-231 breast) was greater than 100 µM.
